From patent publication US6878388B1, “Vanadium compounds for treating proliferative cell disorders” (Parker Hughes Institute, priority 2000, dated 2005) come the findings set out here.

For this experiment, the system named is MDA-MB-231 breast cancer cells. As to the kind of experiment: MTT cytotoxicity assay, MDA-MB-231. The class given is cell-based, human. Conditions: MDA-MB-231 cells, 48 h incubation, 3 independent experiments, read-out: IC50 (mean ± SE). The method, then: Human brain tumor cells lines U87 MG (Cat.# HTB-14), U118 MG (Cat. # HTB-15), U138 (Cat # HTB-16), U373 MG (CAT. # HTB-17), and T98G (Cat. # CRL-1690) and breast cancer cell lines BT-20 (Cat # HTB-19), MDA-MB-231 (Cat # HTB-26), MDA-MB-361 (Cat # HTB-27), and MCF-7 (Cat # HTB-22) were obtained from American Type Culture Collection (ATCC, Rockville, Md.) and maintained as continuous cell lines in Dulbecco's modified Eagles's medium (U87, U118, U138, U373, T98 and BT-20) or Leibovitz's L-15 medium (MDA-MB-231 and MDA-MB-361). All media were supplemented with 10% fetal calf serum (FCS), 4 mM glutamine, 100 U/ml penicillin G and […] streptomycin sulfate. All tissue culture reagents were obtained from Life Technologies Inc. (GIBCO-BRL, Gaithersburg, Md.).
The cytotoxicity of [VO(SO4)(Me2-Phen)2] against human cancer cell lines was analyzed using the MTT (3-[4,5-dimethylthiazol-2-yl]-2,5-diphenyl tetrazolium bromide) assay (Boehringer Mannheim Corp., Indianapolis, Ind.) as described previously (Narla et al., Clin Cancer Res., 4: 1405-1414, 1998). […] The absorbance at 540 nm (a reference wavelength of 690 nm was used) of the solution in each well was measured using a microplate reader (Labsystems). The percent survival and the IC50 values were calculated using Graphpad Prism v2.0 (Graphpad Software, Inc., San Diego, Calif.) as described previously (Narla et al., Supra). […]
On the technique in general: Tetrazolium dyes change colour on reduction, which living cells bring about.

The structures appear in SMILES notation.

As usually defined, the IC50 is the concentration that gives 50% inhibition.

Regarding `Cc1ccnc2c1ccc1c(C)ccnc12.Cc1ccnc2c1ccc1c(C)ccnc12.O=S(=O)([O-])[O-].[O]=[V+2]` [[VO(SO4)(Me2-Phen)2], bis(4,7-dimethyl-1,10-phenanthroline) sulfatooxovanadium (IV)], the IC50 stood at 500 ± 100 nM.
